The results in this text go back to patent publication US11834430B2, “Compounds useful as inhibitors of isoprenylcysteine carboxyl methyltransferase” (AGENCY FOR SCIENCE, TECHNOLOGY AND RESEARCH, priority 2017, dated 2023).

Values joined by “and” are separate entries in the source; they are usually repeats but may differ in a detail not shown here. Equal entries are not always repeated.

human ICMT, sequence (O60725 whole entry): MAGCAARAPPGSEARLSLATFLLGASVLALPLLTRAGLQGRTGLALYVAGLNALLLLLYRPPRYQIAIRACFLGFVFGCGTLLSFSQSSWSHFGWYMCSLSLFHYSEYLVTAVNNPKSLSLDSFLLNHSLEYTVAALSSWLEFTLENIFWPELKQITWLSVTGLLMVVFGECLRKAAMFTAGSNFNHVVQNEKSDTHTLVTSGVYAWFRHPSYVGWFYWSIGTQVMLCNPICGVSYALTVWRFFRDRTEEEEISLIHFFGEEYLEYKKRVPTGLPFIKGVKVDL

One experiment addresses human ICMT (Homo sapiens (Human), UniProt O60725). Nature of the experiment: ICMT biochemical assay (Methyltransferase-Glo). Particulars: ICMT membrane extract from Sf-9 cells; 30 min preincubation, 90 min reaction. As to the method:
Recombinant human ICMT was prepared by infection of Sf9 cells with a recombinant baculovirus containing the entire open reading frame of the human ICMT cDNA.
Cells producing ICMT were harvested 66 hours post-infection. The cells are homogenized and resuspended in 5 mM NaHPO4 (pH 7.0), and a cocktail of protease inhibitors. The membrane was pelleted, after removal of nuclei and debris, at 100,000×g for 1 hour. Membranes were resuspended in 5 mM NaHPO4 (pH 7.0) with 5 mM EDTA at 10-12 mg/ml. The suspension was stored at −80° C. in multiple aliquots.
An ICMT enzymatic assay was developed using Promega's Methyltransferase-GloTMreagents. In the assay, ICMT catalyzes the methylation of the N-Acetyl-S-farnesyl-L-cysteine by transferring a methyl group from SAM to the farnesylated cysteine and further converts the SAM to SAH. The methyltransferase activity is measured based on the amount of SAH produced from the reaction through the use of coupling enzymes that convert the SAH to ATP. The MTase-Glo detection solution then catalyzes the formation of light from ATP.
A final concentration of 2.0 μM and 20 μM of SAM and peptide were added and further incubated for 90 minutes at room temperature before adding the MTase Glo and detection reagent. Reaction signals were detected using microplate readers on luminescent mode (Satire Tecan). The IC50 was determined by nonlinear regression, using GraphPad Prism version, 5.03.
As to `N#Cc1cnc(OCCOc2ccnc(-n3ccnc3C3CC3)c2)c(F)c1` [Compound 90, 6-(2-((2-(2-cyclopropyl-1H-imidazol-1-yl)pyridin-4-yl)oxy)ethoxy)-5-fluoronicotinonitrile], the IC50 is 37 nM.
`Cc1nccn1-c1cc(OCCOc2ccc(C#N)cc2)ccn1` [Compound 85, 4-(2-((2-(2-methyl-1H-imidazol-1-yl)pyridin-4-yl)oxy)ethoxy)benzonitrile] had an IC50 of 15 nM. Against the preceding compound, the IC50 is about 2.5-fold lower.
Same read-out and setting: for `Cc1nccn1-c1cccc(O[C@H](C)COc2ccc(C#N)cc2Cl)c1` [Compound 32, (R)-3-chloro-4-(2-(3-(2-methyl-1H-imidazol-1-yl)phenoxy)propoxy)benzonitrile] the value was 200 nM.
In turn, `Cc1ccc(OCCOc2cccc(-n3ccnc3C)c2)c(F)c1` [Compound 58, 1-(3-(2-(2-fluoro-4-methylphenoxy)ethoxy)phenyl)-2-methyl-1H-imidazole] had an IC50 of 60 nM.
Same read-out and setting: for `Cc1nccn1-c1cc(OCCOc2ccc(C#N)cc2F)ccn1` [Compound 53, 3-fluoro-4-(2-((2-(2-methyl-1H-imidazol-1-yl)pyridin-4-yl)oxy)ethoxy)benzonitrile] the value was 0.44 nM; for `Cc1nccn1-c1cccc(OC[C@H](C)Oc2ccc(C#N)cc2Cl)c1` [Compound 56, (S)-3-chloro-4-((1-(3-(2-methyl-1H-imidazol-1-yl)phenoxy)propan-2-yl)oxy)benzonitrile], 0.15 nM; for `Cc1nccn1-c1cc(OCCOc2ccc(C#N)cc2)ccc1F` [Compound 108, 4-(2-(4-fluoro-3-(2-methyl-1H-imidazol-1-yl)phenoxy)ethoxy)benzonitrile], 51 nM.
Turning to `Cn1nccc1-c1ccc(F)c(OCCOc2ccc(C#N)cc2)c1` [Compound 96, 4-(2-(2-fluoro-5-(1-methyl-1H-pyrazol-5-yl)phenoxy)ethoxy)benzonitrile], the concentration for half-maximal inhibition (IC50) lay in the range of 400 to 3000 nM.
Take `Cc1cc(C#N)ccc1O[C@@H](C)COc1cccc(-c2ccnn2C)c1` [Compound 40, (S)-3-methyl-4-((1-(3-(1-methyl-1H-pyrazol-5-yl)phenoxy)propan-2-yl)oxy)benzonitrile]: the concentration for half-maximal inhibition (IC50) stood at 9.5 nM.
With `COc1cc(C#N)ccc1OCCOc1cccc(-c2cncs2)c1` [Compound 16, 3-methoxy-4-(2-(3-(thiazol-5-yl)phenoxy)ethoxy)benzonitrile], the IC50 is 8 nM and 11 nM.
In turn, `N#Cc1ccc(OCCOc2cccc(-n3ccnc3C3CC3)c2)cc1` [Compound 62, 4-(2-(3-(2-cyclopropyl-1H-imidazol-1-yl)phenoxy)ethoxy)benzonitrile] gave an IC50 of 8.5 nM. This counts as single-digit nanomolar.
Same read-out and setting: in the case of `N#Cc1cnc(OCCOc2cccc(-n3ccnc3C3CC3)c2)c(F)c1` [Compound 83, 6-(2-(3-(2-cyclopropyl-1H-imidazol-1-yl)phenoxy)ethoxy)-5-fluoronicotinonitrile] it was 3.7 nM; in that of `Cc1nccn1-c1cc(OCCOc2ccc(F)cc2C#N)ccn1` [Compound 119, 5-fluoro-2-(2-((2-(2-methyl-1H-imidazol-1-yl)pyridin-4-yl)oxy)ethoxy)benzonitrile], 80 nM; in that of `C[C@H](COc1cccc(-c2ccno2)c1)Oc1ccc(C#N)cc1F` [Compound 65, (R)-3-fluoro-4-((1-(3-(isoxazol-5-yl)phenoxy)propan-2-yl)oxy)benzonitrile], 4670 nM and 4390 nM.
As for `C#Cc1ccc(OCCOc2cccc(-n3ccnc3C)c2)c(F)c1` [Compound 51, 1-(3-(2-(4-ethynyl-2-fluorophenoxy)ethoxy)phenyl)-2-methyl-1H-imidazole], half-maximal inhibition (IC50) required 20 nM.
In the case of `Cc1nccn1-c1cccc(OCCOc2ncc(C#N)cc2F)c1` [Compound 74, 5-fluoro-6-(2-(3-(2-methyl-1H-imidazol-1-yl)phenoxy)ethoxy)nicotinonitrile], half-maximal inhibition (IC50) required 65 nM. Against the preceding compound, the IC50 is about 3.2-fold higher.
`N#Cc1ccc(OCCOc2cccc(-c3cnoc3)c2)c(F)c1` [Compound 84, 3-fluoro-4-(2-(3-(isoxazol-4-yl)phenoxy)ethoxy)benzonitrile] returned an IC50 of 28 nM.
For `C[C@@H](COc1cccc(-n2ccnc2C2CC2)c1)Oc1ccc(C#N)cc1F` [Compound 42, (S)-4-((1-(3-(2-cyclopropyl-1H-imidazol-1-yl)phenoxy)propan-2-yl)oxy)-3-fluorobenzonitrile], the IC50 came out at 12 nM. This IC50 is about 2.3-fold lower than that of the compound before.
In turn, `Cc1cc(C#N)ccc1O[C@H](C)COc1cccc(-c2ccnn2C)c1` [Compound 39, (R)-3-methyl-4-((1-(3-(1-methyl-1H-pyrazol-5-yl)phenoxy)propan-2-yl)oxy)benzonitrile] had a half-inhibitory concentration (IC50) of 4.7 nM.
For `Cn1nccc1-c1cccc(OCCOc2ccc(C#N)cn2)c1` [Compound 75, 6-(2-(3-(1-methyl-1H-pyrazol-5-yl)phenoxy)ethoxy)nicotinonitrile], the IC50 was 60 nM and 62 nM.
On the same count and under the same terms, in the case of `Cn1nccc1-c1cccc(OCCOc2ccc(F)cc2C#N)c1` [Compound 54, 5-fluoro-2-(2-(3-(1-methyl-1H-pyrazol-5-yl)phenoxy)ethoxy)benzonitrile] it was 32 nM; in that of `Cc1nccn1-c1cccc(OCCOc2ccc(C#N)cc2F)c1` [Compound 6, 3-fluoro-4-(2-(3-(2-methyl-1H-imidazol-1-yl)phenoxy)ethoxy)benzonitrile], 2 nM and 1 nM and 2.4 nM.
Turning to `N#Cc1ccc(OCCOc2cccc(-n3ccnc3C3CC3)c2)c(F)c1` [Compound 17, 4-(2-(3-(2-cyclopropyl-1H-imidazol-1-yl)phenoxy)ethoxy)-3-fluorobenzonitrile], the IC50 is 16 nM. In other words, the double-digit nanomolar range.
In the case of `Cc1nccn1-c1cccc(OCCOc2ccc(Cl)cc2F)c1` [Compound 102, 1-(3-(2-(4-chloro-2-fluorophenoxy)ethoxy)phenyl)-2-methyl-1H-imidazole], the IC50 came out at 68 nM.
On to `Cn1nccc1-c1cc(OCCOc2ccc(C#N)cc2F)ccc1F` [Compound 113, 3-fluoro-4-(2-(4-fluoro-3-(1-methyl-1H-pyrazol-5-yl)phenoxy)ethoxy)benzonitrile], for which it took 22 nM to reach half-maximal inhibition (IC50).
In the case of `N#Cc1ccc(OCCOc2cccc(-c3cncs3)c2)cc1` [Compound 3, 4-(2-(3-(thiazol-5-yl)phenoxy)ethoxy)benzonitrile], the IC50 was 630 nM and 490 nM.
As for `Cc1nccn1-c1cccc(OCC(C)Oc2ccc(C#N)cc2Cl)c1` (stereo not shown) [Compound 44, 3-chloro-4-((1-(3-(2-methyl-1H-imidazol-1-yl)phenoxy)propan-2-yl)oxy)benzonitrile], half-maximal inhibition (IC50) required 780 nM. In other words, the sub-micromolar range.
`COc1cc(C#N)ccc1OCCOc1cccc(-n2ccnc2C2CC2)c1` [Compound 19, 4-(2-(3-(2-cyclopropyl-1H-imidazol-1-yl)phenoxy)ethoxy)-3-methoxybenzonitrile]: the IC50 amounted to 4.5 nM.
Still for that read-out and setting: in the case of `N#Cc1ccc(OCCOc2ccnc(-n3cnnn3)c2)c(F)c1` [Compound 120, 4-(2-((2-(1H-tetrazol-1-yl)pyridin-4-yl)oxy)ethoxy)-3-fluorobenzonitrile] it was 12 nM; in that of `Cc1nccn1-c1cc(OCCOc2ccc(Br)cc2F)ccn1` [Compound 104, 4-(2-(4-bromo-2-fluorophenoxy)ethoxy)-2-(2-methyl-1H-imidazol-1-yl)pyridine], 1.7 nM; in that of `N#Cc1ccc(OCCOc2cccc(-c3ccnn3C3CC3)c2)c(Cl)c1` [Compound 118, 3-chloro-4-(2-(3-(1-cyclopropyl-1H-pyrazol-5-yl)phenoxy)ethoxy)benzonitrile], 2.2 nM.
Regarding `N#Cc1ccc(OCCOc2cccc(-n3cnnc3)c2)c(F)c1` [Compound 38, 4-(2-(3-(4H-1,2,4-triazol-4-yl)phenoxy)ethoxy)-3-fluorobenzonitrile], half-maximal inhibition (IC50) required 310 nM.

Staying with this experiment, now noted: unit (nM).
Take `N#Cc1ccc(OCCOc2ccnc(-n3ccnc3C3CC3)c2)c(F)c1` [Compound 76, 4-(2-((2-(2-cyclopropyl-1H-imidazol-1-yl)pyridin-4-yl)oxy)ethoxy)-3-fluorobenzonitrile]: the IC50 was determined as 0.39 nM.
Consider `COc1cc(C#N)ccc1O[C@H](C)COc1cccc(-n2ccnc2C)c1` [Compound 77, (R)-3-methoxy-4-((1-(3-(2-methyl-1H-imidazol-1-yl)phenoxy)propan-2-yl)oxy)benzonitrile], for which half-maximal inhibition (IC50) was put at 0.7 nM.

Still in this experiment, the particulars now being: unit printed in cell (pM).
`Cc1nccn1-c1cccc(OC[C@@H](C)Oc2ccc(C#N)cc2F)c1` [Compound 78, (R)-3-fluoro-4-((1-(3-(2-methyl-1H-imidazol-1-yl)phenoxy)propan-2-yl)oxy)benzonitrile]: the IC50 amounted to 0.075 nM. This lies in the picomolar range.

The test system of another experiment is MIAPaCa-2 cells. Nature of the experiment: Cell proliferation assay (CellTiter-Glo). Format: cell-based. Particulars: Homo sapiens, MIA PaCa-2, 72 h, 3 days. As to the method:
Cell proliferation assay was performed using CellTiter-Glo Luminescent Cell Viability Assay (Promega) following manufacturer's instructions. The MIAPaCa-2 cells (ATCC) were treated with compounds that were serial diluted in the media (DMEM). Plates were incubated for 3 days at 37° C. in 5% CO2. After 3 days, an equal volume of Cell Titer Glo reagent was added. Plates were rocked on a rotator for 2 hours. 100 μL of each well was transferred to a 96-well opaque plate, and luminescence emitted was measured with the Tecan Safire II.
`Cc1nccn1-c1cc(OCCOc2ccc(C#N)cc2F)ccn1` [Compound 53, 3-fluoro-4-(2-((2-(2-methyl-1H-imidazol-1-yl)pyridin-4-yl)oxy)ethoxy)benzonitrile] showed a concentration for 50% growth inhibition (GI50) of 2200 nM.
As for `Cc1nccn1-c1cccc(OC[C@@H](C)Oc2ccc(C#N)cc2F)c1` [Compound 78, (R)-3-fluoro-4-((1-(3-(2-methyl-1H-imidazol-1-yl)phenoxy)propan-2-yl)oxy)benzonitrile], the GI50 turned out to be 6020 nM.
